Laboratory results reported in EP3939664A1 (priority 2020, dated 2022).

How the values were obtained:
[1] = system: SARS-CoV-2; assay: Cell monolayer protection assay (crystal violet staining of virus-induced cell death); type: cell-based, SARS-CoV-2 stock strain NL/2020; design: PC Max: unit: uM; conditions: for minimal effective concentration: Severe acute respiratory syndrome coronavirus 2, Vero C1008, minimum compound concentration protecting Vero-E6 cell monolayer from virus induced cell death, read-out: PC Min; for minimal effective concentration / PC Max: 72 hours, dilutions from 50µM to 780nM tested; for PC Max: maximum compound concentration protecting Vero-E6 cell monolayer from virus induced cell death
[2] = in vitro; conditions: human, huh7-lunet#3 cells
[3] = system: hCoV-229E-GFP virus (Human coronavirus 229E expressing Green Fluorescent Protein); assay: microbe, parasite or virus in culture; type: cell-based; conditions: Huh7-Lunet#3 cells, 72 hours at 33°C, read-out: reduction of hCoV-229E-GFP propagation
[4] = system: SARS-CoV-2; assay: Relative viral RNA content by real time qPCR; type: cell-based; conditions: for activity at 15 µM: Severe acute respiratory syndrome coronavirus 2, Vero C1008, 15µM compound, viral RNA by qPCR, relative to cells treated only with vehicle (DMSO)

SMILES	minimal effective concentration [1]	PC Max [1]	viability at 72 h, 10 µM [2]	inhibition at 10 µM [3]	viral RNA levels by qPCR (result in words) [4]	activity at 15 µM [4]	protective activity against SARS-CoV-2 (result in words) ([1]; Figure 1, 0.78-50µM)
CCCCc1ccc(-c2ccc3nc(-c4ccc(OC)cc4)cc(C(=O)O)c3c2)cc1 [Example 3, 6-(4-butylphenyl)-2-(4-methoxyphenyl)quinoline-4-carboxylic acid]	50 µM	50	–	–	–	–	–
COc1ccc(-c2cc(C(=O)O)c3cc(-c4ccc(C(C)(C)C)cc4)ccc3n2)cc1 [Example 4, 6-(4-(tert-butyl)phenyl)-2-(4-methoxyphenyl)quinoline-4-carboxylic acid]	50 µM	50	107%	74%	–	–	–
CCc1ccc(-c2ccc3nc(-c4ccccc4)cc(C(=O)O)c3c2)cc1 [Example 12, 6-(4-ethylphenyl)-2-phenylquinoline-4-carboxylic acid]	50 µM	50	–	–	–	–	–
CC(C)(C)c1ccc(-c2ccc3nc(-c4ccccc4)cc(C(=O)O)c3c2)cc1 [Example 14, 6-(4-(tert-butyl)phenyl)-2-phenylquinoline-4-carboxylic acid]	50 µM	50	–	–	–	–	–
O=C(O)c1cc(-c2ccccc2)nc2ccc(-c3ccc(Cl)c(Cl)c3)cc12 [Example 16, 6-(3,4-dichlorophenyl)-2-phenylquinoline-4-carboxylic acid]	50 µM	50	–	–	–	–	–
CCc1ccc(-c2ccc(-c3cc(C(=O)O)c4ccccc4n3)cc2)cc1 [Example 19, 2-(4'-ethyl-[1,1'-biphenyl]-4-yl)quinoline-4-carboxylic acid]	50 µM	50	–	–	–	–	–
CCCCc1ccc(-c2ccc(-c3cc(C(=O)O)c4ccccc4n3)cc2)cc1 [Example 20, 2-(4'-butyl-[1,1'-biphenyl]-4-yl)quinoline-4-carboxylic acid]	12.5 µM	50	–	–	virtually undetectable levels	0.001%	–
CC(C)(C)c1ccc(-c2ccc(-c3cc(C(=O)O)c4ccccc4n3)cc2)cc1 [Example 21, 2-(4'-(tert-butyl)-[1,1'-biphenyl]-4-yl)quinoline-4-carboxylic acid]	3.12 µM	50	–	–	virtually undetectable levels	1e-05%	comparable efficacy to remdesivir
O=C(O)c1cc(-c2ccc(-c3ccc(Cl)c(Cl)c3)cc2)nc2ccccc12 [Example 23, 2-(3',4'-dichloro-[1,1'-biphenyl]-4-yl)quinoline-4-carboxylic acid]	50 µM	50	–	–	–	–	–
O=C(O)c1cc(-c2ccc(-c3cccc(OC(F)(F)F)c3)cc2)nc2ccccc12 [Example 24, 2-(3'-(trifluoromethoxy)-[1,1'-biphenyl]-4-yl)quinoline-4-carboxylic acid]	50 µM	50	–	–	–	–	–
CCCCc1ccc(-c2cccc(-c3cc(C(=O)O)c4ccccc4n3)c2)cc1 [Example 27, 2-(4'-butyl-[1,1'-biphenyl]-3-yl)quinoline-4-carboxylic acid]	25 µM	50	–	–	–	–	–
CC(C)(C)c1ccc(-c2cccc(-c3cc(C(=O)O)c4ccccc4n3)c2)cc1 [Example 28, 2-(4'-(tert-butyl)-[1,1'-biphenyl]-3-yl)quinoline-4-carboxylic acid]	25 µM	50	–	–	–	–	–
CCCCc1ccc(-c2ccc3c(C(=O)O)cc(-c4ccc(OC)cc4)nc3c2)cc1 [Example 33, 7-(4-butylphenyl)-2-(4-methoxyphenyl)quinoline-4-carboxylic acid]	50 µM	50	–	–	–	–	–
COc1ccc(-c2cc(C(=O)O)c3ccc(-c4ccc(C(C)(C)C)cc4)cc3n2)cc1 [Example 34, 7-(4-(tert-butyl)phenyl)-2-(4-methoxyphenyl)quinoline-4-carboxylic acid]	50 µM	50	–	–	–	–	–
CCc1ccc(-c2cccc3c(C(=O)O)cc(-c4ccc(OC)cc4)nc23)cc1 [Example 42, 8-(4-ethylphenyl)-2-(4-methoxyphenyl)quinoline-4-carboxylic acid]	50 µM	50	–	–	–	–	–
COc1ccc(-c2cc(C(=O)O)c3cccc(-c4ccc(C(C)(C)C)cc4)c3n2)cc1 [Example 44, 8-(4-(tert-butyl)phenyl)-2-(4-methoxyphenyl)quinoline-4-carboxylic acid]	12.5 µM	50	–	–	virtually undetectable levels	0.01%	–
COc1ccc(-c2cc(C(=O)O)c3cccc(-c4ccc(Cl)c(Cl)c4)c3n2)cc1 [Example 46, 8-(3,4-dichlorophenyl)-2-(4-methoxyphenyl)quinoline-4-carboxylic acid]	50 µM	50	–	–	–	–	–
COc1ccc(-c2cc(C(=O)O)c3cccc(-c4cccc(OC(F)(F)F)c4)c3n2)cc1 [Example 47, 2-(4-methoxyphenyl)-8-(3-(trifluoromethoxy)phenyl)quinoline-4-carboxylic acid]	50 µM	50	–	–	–	–	–
CCCOc1ccc(-c2cccc3c(C(=O)O)cc(-c4ccc(OC)cc4)nc23)cc1 [Example 48, 2-(4-methoxyphenyl)-8-(4-propoxyphenyl)quinoline-4-carboxylic acid]	50 µM	50	–	–	–	–	–
CCC(CC)COC(=O)[C@H](C)N[P@](=O)(OC[C@H]1O[C@@](C#N)(c2ccc3c(N)ncnn23)[C@H](O)[C@@H]1O)Oc1ccccc1 [Remdesevir, remdesivir, reference compound]	0.78 µM	50	–	–	–	–	–
